Assay results reported in article PMC8116589, “Distinguishing Signal From Noise in Immunopeptidome Studies of Limiting-Abundance Biological Samples: Peptides Presented by I-A^b in C57BL/6 Mouse Thymus” (Frontiers in Immunology, 2021).
Where no end group is shown, it is not given here. [ ]: non-standard residue; d: D form.

Tests used:
I-A^b = biological target: T1, I-A^b (Mus musculus, UniProt P14434+P14483); test: biochemical
T1 sequence (P14434 24-218 limits assumed): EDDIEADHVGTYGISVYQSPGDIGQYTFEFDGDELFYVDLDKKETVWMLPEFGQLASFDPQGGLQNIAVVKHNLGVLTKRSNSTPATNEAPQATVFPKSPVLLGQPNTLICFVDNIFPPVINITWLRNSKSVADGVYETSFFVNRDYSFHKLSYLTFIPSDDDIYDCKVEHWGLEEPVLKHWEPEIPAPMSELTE
T1 sequence (P14483 28-226 limits assumed): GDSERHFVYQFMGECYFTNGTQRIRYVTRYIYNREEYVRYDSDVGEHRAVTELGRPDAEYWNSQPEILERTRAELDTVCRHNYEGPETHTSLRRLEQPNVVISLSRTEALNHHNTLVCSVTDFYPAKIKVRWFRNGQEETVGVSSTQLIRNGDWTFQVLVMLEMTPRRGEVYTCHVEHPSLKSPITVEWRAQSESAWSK
Protocol: A fluorescence polarization (FP) assay was used to measure the IC50 of using N-terminally-acetylated CLIP peptide labeled with Alexa Fluor 488 tetrafluorophenyl ester (Invitrogen, Carlsbad, CA) via the primary amine at K3 as probe peptide as previously described ([34]). The binding reactions were carried in buffer conditions of 100 mM sodium citrate, 50 mM sodium chloride, 0.1% octyl β-D-glucopyranoside, 5 mM ethylenediaminetetraacetic acid, 0.1% sodium azide, 0.2 mM iodoacetic acid, 1 mM dithiothreitol). […] Thrombin is added during all the reactions at a concentration of 1U/ug and inactivated after 3hrs of reaction using 0.1mM phenylmethanesulfonyl fluoride. […] For calculating IC50 values, 100 nM I-A^b-3R was incubated with 25 nM Alexa488-labeled CLIP probe peptide, in combination with a serial dilution of test peptides, beginning at 100 µM followed by 5-fold dilutions in presence of 0.5µM HLA-DM. The reaction mixture was incubated at 37°C. The capacity of each test peptide to compete for binding of probe peptide was measured by FP after 72 h at 37°C. The assay was read using a Victor X5 Multilabel plate reader (PerkinElmer, Shelton, CT). FP values were converted to fraction bound by calculating [(FP_sample - FP_free)/(FP_no_comp - FP_free)], where FP_sample represents the FP value in the presence of test peptide; FP_free represents the value for free Alexa488-conjugated CLIP peptide; and FP_no_comp represents values in the absence of competitor peptide. We plotted fraction bound versus concentration of test peptide and fit the curve to the equation y = 1/(1 +[pep]/IC50), where [pep] is the concentration of test peptide, y is the fraction of probe peptide bound at that concentration of test peptide, and IC50 is the 50% inhibitory concentration of the test peptide.

[1] = biological target: soluble I-A^b-3R, mouse MHC-II protein (recombinant I-A^b) (mouse); test: fluorescence polarisation; competition: 100 nM I-A^b-3R (3R cut off by thrombin, 1 U/ug), 25 nM Alexa488-labeled CLIP probe peptide, test peptide from 100 uM in 5-fold dilutions, 0.5 uM HLA-DM, read after 72 h at 37 C; 100 mM sodium citrate, 50 mM NaCl, 0.1% octyl glucoside, 5 mM EDTA, 1 mM DTT; three independent experiments, mean and SD

Molecule: AAYLWVGAGASEAEKT
- IC50 (I-A^b): 276 nM

Molecule: AGKLQDQGPDVLLAKVS
- IC50 (I-A^b): 378 nM

Molecule: AGTGVDNVDLEAATR
- IC50 (I-A^b): 57500 nM

Molecule: AMLQVLGPKPALPEG
- IC50 (I-A^b): 1170 nM

Molecule: APGHYTYSSPHSGSIH
- IC50 (I-A^b): 1580 nM

Molecule: APTSALGPKASPAPS
- IC50 (I-A^b): 2300 nM

Molecule: AQRAGYKAAIVHNVDS
- IC50 (I-A^b): 2420 nM

Molecule: ARYIYGKPVQGVAYTR
- IC50 (I-A^b): 153 nM

Molecule: ATVSWRAPTAQVESFR
- IC50 (I-A^b): 407 nM

Molecule: AVLLPKKSSATVGPKAPAVGK
- IC50 (I-A^b): 13600 nM

Molecule: DGELTYENVQVSPVPGGPP
- IC50 (I-A^b): 1360 nM

Molecule: EKPVPAAPVPSPVAPAP
- IC50 (I-A^b): 1140 nM

Molecule: FPKPPSYNVATTLPSYDE
- IC50 (I-A^b): 231 nM

Molecule: GALLLNAPVVSITQGR
- IC50 (I-A^b): 1660 nM

Molecule: GGSTDYNAAFISRLS
- IC50 (I-A^b): 4960 nM

Molecule: GIDPYDQPNAIYIER
- IC50 (I-A^b): 167 nM

Molecule: GIVNLKSPKTTSATKI
- IC50 (I-A^b): 12800 nM

Molecule: GKYTYGKPVPGHVKI
- IC50 (I-A^b): 399 nM

Molecule: GPGSREAASPVAITVQE
- IC50 (I-A^b): 467 nM

Molecule: GPPPYHESLAGASQPP
- IC50 (I-A^b): 1500 nM

Molecule: GRKFVYAGSNSGVVQ
- IC50 (I-A^b): 1480 nM

Molecule: GTTGQLFFPEVNKNHR
- IC50 (I-A^b): 2640 nM

Molecule: HIADLAGNPEVILPVPA
- IC50 (I-A^b): 13900 nM

Molecule: HLNTYDGSHTLRVSQS
- IC50 (I-A^b): 1360 nM

Molecule: HNYEGPETHTSLRRL
- IC50 (I-A^b): 797 nM

Molecule: IRRYGVSQPDAVAAWK
- IC50 (I-A^b): 250 nM

Molecule: ISKQEYDESGPSIVHR
- IC50 (I-A^b): 15200 nM

Molecule: ITPSYVAFTPEGERL
- IC50 (I-A^b): 1890 nM

Molecule: IYEAYRQGQANLEAL [IYEAYRQGQANLEAL]
- IC50 (I-A^b): 1370 nM

Molecule: KDITTVNFPPALASGGG
- IC50 (I-A^b): 970 nM

Molecule: KPSIFHDAKSEIIKGHA
- IC50 (I-A^b): 4960 nM

Molecule: KPTVTVVSPLPNDSINPQP
- IC50 (I-A^b): 2250 nM

Molecule: KWKALYTDPKSSETA
- IC50 (I-A^b): 3450 nM

Molecule: LLPKYSFAKPSIVSDK
- IC50 (I-A^b): 179 nM

Molecule: LNLPTGIPIVYEL
- IC50 (I-A^b): 54400 nM

Molecule: LPGELAKHAVSEGTKA
- IC50 (I-A^b): 32000 nM

Molecule: LPQEKYVTSAPMPEPG
- IC50 (I-A^b): 562 nM

Molecule: LSSGFSLEDPQTHSNRIY
- IC50 (I-A^b): 13300 nM

Molecule: LVRYTQKAPQVSTPTLV
- IC50 (I-A^b): 765 nM

Molecule: NDWTVDHPQTLFAWEG
- IC50 (I-A^b): 445 nM

Molecule: NVLRIINEPTAAAIA
- IC50 (I-A^b): 337 nM

Molecule: PGQGTTGQLFFPEVNKN
- IC50 (I-A^b): 2900 nM

Molecule: PHPYPALTPEQKKELSDIAHRIVAPGKG
- IC50 (I-A^b): 10900 nM

Molecule: PSRYITPDQLADLYK
- IC50 (I-A^b): 2910 nM

Molecule: QVLSWSSPVGSRTLA
- IC50 (I-A^b): 152 nM

Molecule: RVLIPYQGPSSDYVVVK
- IC50 (I-A^b): 275 nM

Molecule: RVTIAQGGVLPNIQ
- IC50 (I-A^b): 26000 nM

Molecule: SDLHAFSGSAAWDDS
- IC50 (I-A^b): 1090 nM

Molecule: SDLHAFSGSAAWDDSAG
- IC50 (I-A^b): 1920 nM

Molecule: SLRRLEQPNVVISLSR
- IC50 (I-A^b): 93.8 nM

Molecule: TNPIITPVAQENQ
- IC50 (I-A^b): 1740 nM

Molecule: VEEDAESEDEDEEDVKLLGMSGK
- IC50 (I-A^b): 111000 nM

Molecule: VGTARYMAPEVLESR
- IC50 (I-A^b): 197 nM

Molecule: VGTARYMAPEVLESRM
- IC50 (I-A^b): 306 nM

Molecule: YSMGMHTYQVG
- IC50 (I-A^b): 74100 nM

Molecule: YVTQFHPPHIEIQ
- IC50 (I-A^b): 1070 nM

Molecule: LSSGFSLEDPQTHSNRIY [… (Heat shock protein HSP 90-beta peptide)]
- IC50 [1]: 13300 nM

Molecule: VEEDAESEDEDEEDVKLLGMSGK [… (Nucleophosmin peptide)]
- IC50 [1]: 111000 nM

Molecule: HIADLAGNPEVILPVPA
- IC50 [1]: 13900 nM

Molecule: PSRYITPDQLADLYK
- IC50 [1]: 2910 nM

Molecule: ATVSWRAPTAQVESFR [… (Tenascin peptide)]
- IC50 [1]: 407 nM

Molecule: APGHYTYSSPHSGSIH [… (Prostaglandin-H2 D-isomerase isoform 2 peptide)]
- IC50 [1]: 1580 nM

Molecule: ITPSYVAFTPEGERL [… (78 kDa glucose-regulated protein peptide)]
- IC50 [1]: 1890 nM

Molecule: TNPIITPVAQENQ [… (Apolipoprotein E peptide)]
- IC50 [1]: 1740 nM

Molecule: GPPPYHESLAGASQPP [… (Protein shisa-5 isoform 2 peptide)]
- IC50 [1]: 1500 nM

Molecule: FPKPPSYNVATTLPSYDE [… (NEDD4 family-interacting protein 1 peptide)]
- IC50 [1]: 231 nM

Molecule: GIDPYDQPNAIYIER
- IC50 [1]: 167 nM

Molecule: QQLAFKQPSSAYAAFN [q… (Complement C3 peptide)]
- IC50 [1]: 170 nM

Molecule: YVTQFHPPHIEIQ [… (Beta-2-microglobulin peptide)]
- IC50 [1]: 1070 nM

Molecule: HNYEGPETHTSLRRL
- IC50 [1]: 797 nM

Molecule: LPQEKYVTSAPMPEPG [… (Ig mu chain C region peptide)]
- IC50 [1]: 562 nM

Molecule: GALLLNAPVVSITQGR [… (L-amino-acid oxidase isoform 2 peptide)]
- IC50 [1]: 1660 nM

Molecule: GRKFVYAGSNSGVVQ [… (Semaphorin-4D peptide)]
- IC50 [1]: 1480 nM

Molecule: RVLIPYQGPSSDYVVVK
- IC50 [1]: 275 nM

Molecule: ARYIYGKPVQGVAYTR [… (Complement C4-B peptide)]
- IC50 [1]: 153 nM

Molecule: LVRYTQKAPQVSTPTLV [… (Serum albumin peptide)]
- IC50 [1]: 765 nM

Molecule: GTTGQLFFPEVNKNHR
- IC50 [1]: 2640 nM

Molecule: PGQGTTGQLFFPEVNKN
- IC50 [1]: 2900 nM

Molecule: AMLQVLGPKPALPEG
- IC50 [1]: 1180 nM

Molecule: AAYLWVGAGASEAEKT
- IC50 [1]: 276 nM

Molecule: SLRRLEQPNVVISLSR
- IC50 [1]: 93.8 nM

Molecule: DGELTYENVQVSPVPGGPP [… (B-cell differentiation antigen CD72 peptide)]
- IC50 [1]: 1360 nM

Molecule: LEISYTGSRPASN[code m]V (not fully specified; printed as LEISYTGSRPASNmV (Murinoglobulin-1 peptide)) […mV (Murinoglobulin-1 peptide)]
- IC50 [1]: 349 nM

Molecule: GKYTYGKPVPGHVKI [… (Murinoglobulin-1 peptide)]
- IC50 [1]: 399 nM

Molecule: EKPVPAAPVPSPVAPAP [… (Hematological and neurological expressed 1 protein peptide)]
- IC50 [1]: 1140 nM

Molecule: KPSIFHDAKSEIIKGHA [… (Platelet endothelial cell adhesion molecule isoform 4 peptide)]
- IC50 [1]: 4960 nM

Molecule: VGTARYMAPEVLESR
- IC50 [1]: 197 nM

Molecule: VGTARYMAPEVLESRM
- IC50 [1]: 306 nM

Molecule: SDLHAFSGSAAWDDSAG
- IC50 [1]: 1920 nM

Molecule: SDLHAFSGSAAWDDS
- IC50 [1]: 1090 nM

Molecule: KPTVTVVSPLPNDSINPQP [… (Protein EVI2B peptide)]
- IC50 [1]: 2250 nM

Molecule: KWKALYTDPKSSETA [… (Retinoid-inducible serine carboxypeptidase peptide)]
- IC50 [1]: 3450 nM

Molecule: GIVNLKSPKTTSATKI [… (Tissue alpha-L-fucosidase peptide)]
- IC50 [1]: 12800 nM

Molecule: IYEAYRQGQANLEAL [… (Marginal zone B- and B1-cell-specific protein peptide)]
- IC50 [1]: 1370 nM

Molecule: AVLLPKKSSATVGPKAPAVGK [… (Histone H2AX peptide)]
- IC50 [1]: 13600 nM

Molecule: GGSTDYNAAFISRLS [… (Protein Ighv2-2 peptide)]
- IC50 [1]: 4960 nM

Molecule: KDITTVNFPPALASGGG [… (Protein Igha peptide)]
- IC50 [1]: 970 nM

Molecule: LLPKYSFAKPSIVSDK [… (Complement receptor type 2 peptide)]
- IC50 [1]: 179 nM

Molecule: GPGSREAASPVAITVQE [… (Fc receptor-like A peptide)]
- IC50 [1]: 466 nM

Molecule: HLNTYDGSHTLRVSQS [… (T-lymphocyte surface antigen Ly-9 peptide)]
- IC50 [1]: 1360 nM

Molecule: AGKLQDQGPDVLLAKVS [… (Inter alpha-trypsin inhibitor, heavy chain 4 peptide)]
- IC50 [1]: 378 nM

Molecule: APTSALGPKASPAPS [… (CCR4-NOT transcription complex subunit 3 peptide)]
- IC50 [1]: 2300 nM
